{"source": "patent US20100075368A1", "about": "“Media for recovery of microorganism in the presence of antibiotics” (Millipore Corporation, priority 2004, published 2010)", "format_in_all_cases": "cell-based", "key": {"S. aureus (ATCC 6538) [1]": {"system": "S. aureus (ATCC 6538)", "assay": "Simulated air monitoring: antibiotic disc zone of inhibition on SCDA", "conditions": "Staphylococcus aureus, disc: ofloxacin 5 ug", "description": "(§1) One method of monitoring air in an antibiotic manufacturing plant is to impact air onto an agar surface collecting both microorganisms and antibiotic on the agar surface. This test was simulated by spreading microorganisms over an agar surface containing varying amounts of magnesium cation and then placing disks containing antibiotics onto the agar surface. The zone of inhibition around each disk was measured to give an indication of the ability of the medium to neutralize the effect of the antibiotic (method followed is similar to the susceptibility disc test used in clinical microbiology). S. aureus (ATCC 6538), P. aeruginosa (ATCC 9027) or E. coli (ATCC 25922) were spread on the agar surface of SCDA containing 0.1M, 0.2M, 0.3M, 0.4M or 0.5M magnesium cation. Discs impregnated with a known amount of antibiotic were then placed onto the bacteria on the agar plate. Plates were incubated and the zone of inhibition of bacterial growth was measured."}, "E. coli (ATCC 25922)": {"system": "E. coli (ATCC 25922)", "assay": "Simulated air monitoring: antibiotic disc zone of inhibition on SCDA", "conditions": "Escherichia coli, disc: ofloxacin 5 ug", "description": "as §1"}, "[2]": {"system": "P. aeruginosa (ATCC 9027)", "assay": "Simulated air monitoring: antibiotic disc zone of inhibition on SCDA", "conditions": "Pseudomonas aeruginosa, disc: ofloxacin 5 ug", "description": "as §1"}, "S. aureus (ATCC 6538) [3]": {"system": "S. aureus (ATCC 6538)", "assay": "Direct inoculation of SCDB broth tubes, growth in presence of antibiotic", "conditions": "ciprofloxacin 100 μg/mL in SCDB, 200 cfu", "method": "Test tubes containing SCDB media in the presence or absence of magnesium cation or ciprofloxacin antibiotic were inoculated with 200 colony forming units (cfu) of S. aureus (ATCC 6538). Sample A was used with a ciprofloxacin sample (100 μg/mL) and contained no divalent cation constituent. B was used with ciprofloxacin (100 μg/mL) and contained 0.5 M magnesium cation. C was used with a control and contained 0.5M of the same divalent cation of B. D was used with a control and contained no divalent cation."}, "[4]": {"conditions": "ATCC6538, 0.0 M cation in SCDA, streptomycin 10 ug, doxycycline 30 ug"}, "[5]": {"conditions": "ATCC6538, 0.1M magnesium cation in SCDA, streptomycin 10 ug, doxycycline 30 ug"}, "[6]": {"conditions": "ATCC6538, 0.3M magnesium cation in SCDA, streptomycin 10 ug, doxycycline 30 ug"}, "[7]": {"conditions": "ATCC6538, 0.5M magnesium cation in SCDA, streptomycin 10 ug, doxycycline 30 ug"}, "[8]": {"conditions": "ATCC25922, 0.0 M cation in SCDA, streptomycin 10 ug, doxycycline 30 ug"}, "[9]": {"conditions": "ATCC25922, 0.1M magnesium cation in SCDA, streptomycin 10 ug, doxycycline 30 ug"}, "[10]": {"conditions": "ATCC25922, 0.3M magnesium cation in SCDA, streptomycin 10 ug, doxycycline 30 ug"}, "[11]": {"conditions": "ATCC25922, 0.5M magnesium cation in SCDA, streptomycin 10 ug, doxycycline 30 ug"}, "[12]": {"conditions": "ATCC9027, 0.0 M cation in SCDA, streptomycin 10 ug, doxycycline 30 ug"}, "[13]": {"conditions": "ATCC9027, 0.1M magnesium cation in SCDA, streptomycin 10 ug, doxycycline 30 ug"}, "[14]": {"conditions": "ATCC9027, 0.3M magnesium cation in SCDA, streptomycin 10 ug, doxycycline 30 ug"}, "[15]": {"conditions": "ATCC9027, 0.5M magnesium cation in SCDA, streptomycin 10 ug, doxycycline 30 ug"}}}
{"molecule": "C[C@H]1c2cccc(O)c2C(=O)C2=C(O)[C@]3(O)C(=O)C(C(N)=O)=C(O)[C@@H](N(C)C)[C@@H]3[C@@H](O)[C@@H]21", "note": "[Doxycycline, doxycycline]", "values": [{"measurement": "zone of inhibition at 30 µg/disc", "setting": "S. aureus (ATCC 6538) [1]; [4]", "value": 25, "unit": "mm"}, {"measurement": "zone of inhibition at 30 µg/disc", "setting": "S. aureus (ATCC 6538) [1]; [5]", "value": 13, "unit": "mm"}, {"measurement": "zone of inhibition at 30 µg/disc", "setting": "S. aureus (ATCC 6538) [1]; [6]", "value": 11, "unit": "mm"}, {"measurement": "zone of inhibition at 30 µg/disc", "setting": "S. aureus (ATCC 6538) [1]; [7]", "value": 13, "unit": "mm"}, {"measurement": "zone of inhibition at 30 µg/disc", "setting": "E. coli (ATCC 25922); [8]", "value": 18, "unit": "mm"}, {"measurement": "zone of inhibition at 30 µg/disc", "setting": "E. coli (ATCC 25922); [9]", "value": 6, "unit": "mm"}, {"measurement": "zone of inhibition at 30 µg/disc", "setting": "E. coli (ATCC 25922); [10]", "value": 6, "unit": "mm"}, {"measurement": "zone of inhibition at 30 µg/disc", "setting": "E. coli (ATCC 25922); [11]", "value": 6, "unit": "mm"}, {"measurement": "zone of inhibition at 30 µg/disc", "setting": "[2]; [12]", "value": 6, "unit": "mm"}, {"measurement": "zone of inhibition at 30 µg/disc", "setting": "[2]; [13]", "value": 6, "unit": "mm"}, {"measurement": "zone of inhibition at 30 µg/disc", "setting": "[2]; [14]", "value": 6, "unit": "mm"}, {"measurement": "zone of inhibition at 30 µg/disc", "setting": "[2]; [15]", "value": 6, "unit": "mm"}]}
{"molecule": "[H]/N=C(/N)N[C@H]1[C@H](O)[C@@H](O)[C@H](O[C@@H]2O[C@@H](C)[C@](O)(C=O)[C@H]2O[C@@H]2O[C@@H](CO)[C@H](O)[C@@H](O)[C@@H]2NC)[C@@H](N/C(N)=N\\[H])[C@@H]1O", "note": "[Streptomycin, streptomycin]", "values": [{"measurement": "zone of inhibition at 10 µg/disc", "setting": "S. aureus (ATCC 6538) [1]; [4]", "value": 17, "unit": "mm"}, {"measurement": "zone of inhibition at 10 µg/disc", "setting": "S. aureus (ATCC 6538) [1]; [5]", "value": 12, "unit": "mm"}, {"measurement": "zone of inhibition at 10 µg/disc", "setting": "S. aureus (ATCC 6538) [1]; [6]", "value": 7, "unit": "mm"}, {"measurement": "zone of inhibition at 10 µg/disc", "setting": "S. aureus (ATCC 6538) [1]; [7]", "value": 8, "unit": "mm"}, {"measurement": "zone of inhibition at 10 µg/disc", "setting": "E. coli (ATCC 25922); [8]", "value": 14, "unit": "mm"}, {"measurement": "zone of inhibition at 10 µg/disc", "setting": "E. coli (ATCC 25922); [9]", "value": 12, "unit": "mm"}, {"measurement": "zone of inhibition at 10 µg/disc", "setting": "E. coli (ATCC 25922); [10]", "value": 9, "unit": "mm"}, {"measurement": "zone of inhibition at 10 µg/disc", "setting": "E. coli (ATCC 25922); [11]", "value": 6, "unit": "mm"}, {"measurement": "zone of inhibition at 10 µg/disc", "setting": "[2]; [12]", "value": 11, "unit": "mm"}, {"measurement": "zone of inhibition at 10 µg/disc", "setting": "[2]; [13]", "value": 6, "unit": "mm"}, {"measurement": "zone of inhibition at 10 µg/disc", "setting": "[2]; [14]", "value": 6, "unit": "mm"}, {"measurement": "zone of inhibition at 10 µg/disc", "setting": "[2]; [15]", "value": 6, "unit": "mm"}]}
{"molecule": "O=C(O)c1cn(C2CC2)c2cc(N3CCNCC3)c(F)cc2c1=O", "note": "[Ciprofloxacin, ciprofloxacin]", "values": [{"measurement": "Result (growth of microorganism)", "setting": "S. aureus (ATCC 6538) [3]; 0.5 M magnesium cation added to broth", "value": "Growth"}, {"measurement": "Result (growth of microorganism)", "setting": "S. aureus (ATCC 6538) [3]; divalent cation added to broth: None", "value": "No growth"}]}
{"molecule": "CC1COc2c(N3CCN(C)CC3)c(F)cc3c(=O)c(C(=O)O)cn1c23", "note": "(centres unmarked) [Ofloxacin, ofloxacin]", "values": [{"measurement": "zone of inhibition at 5 µg/disc", "setting": "S. aureus (ATCC 6538) [1]; [4]", "value": 23, "unit": "mm"}, {"measurement": "zone of inhibition at 5 µg/disc", "setting": "S. aureus (ATCC 6538) [1]; [5]", "value": 11, "unit": "mm"}, {"measurement": "zone of inhibition at 5 µg/disc", "setting": "S. aureus (ATCC 6538) [1]; ATCC6538, 0.2M magnesium cation in SCDA", "value": 8, "unit": "mm"}, {"measurement": "zone of inhibition at 5 µg/disc", "setting": "S. aureus (ATCC 6538) [1]; [6]", "value": 6, "unit": "mm"}, {"measurement": "zone of inhibition at 5 µg/disc", "setting": "S. aureus (ATCC 6538) [1]; ATCC6538, 0.4M magnesium cation in SCDA", "value": 7, "unit": "mm"}, {"measurement": "zone of inhibition at 5 µg/disc", "setting": "S. aureus (ATCC 6538) [1]; [7]", "value": 6, "unit": "mm"}, {"measurement": "zone of inhibition at 5 µg/disc", "setting": "E. coli (ATCC 25922); [8]", "value": 26, "unit": "mm"}, {"measurement": "zone of inhibition at 5 µg/disc", "setting": "E. coli (ATCC 25922); [9]", "value": 13, "unit": "mm"}, {"measurement": "zone of inhibition at 5 µg/disc", "setting": "E. coli (ATCC 25922); ATCC25922, 0.2M magnesium cation in SCDA", "value": 13, "unit": "mm"}, {"measurement": "zone of inhibition at 5 µg/disc", "setting": "E. coli (ATCC 25922); [10]", "value": 13, "unit": "mm"}, {"measurement": "zone of inhibition at 5 µg/disc", "setting": "E. coli (ATCC 25922); ATCC25922, 0.4M magnesium cation in SCDA", "value": 12, "unit": "mm"}, {"measurement": "zone of inhibition at 5 µg/disc", "setting": "E. coli (ATCC 25922); [11]", "value": 12, "unit": "mm"}, {"measurement": "zone of inhibition at 5 µg/disc", "setting": "[2]; [12]", "value": 20, "unit": "mm"}, {"measurement": "zone of inhibition at 5 µg/disc", "setting": "[2]; [13]", "value": 6, "unit": "mm"}, {"measurement": "zone of inhibition at 5 µg/disc", "setting": "[2]; ATCC9027, 0.2M magnesium cation in SCDA", "value": 6, "unit": "mm"}, {"measurement": "zone of inhibition at 5 µg/disc", "setting": "[2]; [14]", "value": 6, "unit": "mm"}, {"measurement": "zone of inhibition at 5 µg/disc", "setting": "[2]; ATCC9027, 0.4M magnesium cation in SCDA", "value": 6, "unit": "mm"}, {"measurement": "zone of inhibition at 5 µg/disc", "setting": "[2]; [15]", "value": 6, "unit": "mm"}]}
